{"source": "paper PMC3823413", "about": "(Journal of Cellular and Molecular Medicine, 2008)", "molecules": {"B1": {"name": "IFN-γ: cytokine used for PMN stimulation (protein, UniProt P01579 24-161, looked up)", "Interferon gamma": "QDPYVKEAENLKKYFNAGHSDVADNGTLFLGILKNWKEESDRKIMQSQIVSFYFKLFKNFKDDQSIQKSVETIKEDMNVKFFNSNKKKRDDFEKLTNYSVTDLNVQRKAIHELIQVMAELSPAAKTGKRKRSQMLFRG"}}, "key": {"[1]": {"test_system": "fMLP-stimulated H2O2 production in human PMN", "assay": "Adenosine inhibition of fMLP-stimulated H2O2 production in human PMN", "type": "cell-based", "conditions": "for IC50: Homo sapiens"}, "human PMN [2]": {"test_system": "human PMN", "conditions": "H2O2 production; PMN incubated with mediator for 6 hrs; mean (± S.E.M.)"}, "human PMN [3]": {"test_system": "human PMN", "assay": "Vitality of human PMN after incubation with inflammatory mediators", "type": "cell-based", "conditions": "dead cells after 6 hrs incubation with mediator; mean (± S.E.M.)"}, "[4]": {"conditions": "PMN pre-incubated with IFN-γ 6 hrs"}, "[5]": {"conditions": "PMN pre-incubated with IL-1 6 hrs"}, "[6]": {"conditions": "PMN pre-incubated with IL-8 6 hrs"}, "[7]": {"conditions": "PMN pre-incubated with LPS 10 μg/ml 6 hrs"}, "[8]": {"conditions": "PMN pre-incubated with TNF-α 6 hrs"}}, "data": [{"molecule": "Nc1ncnc2c1ncn2[C@@H]1O[C@H](CO)[C@@H](O)[C@H]1O", "note": "[adenosine]", "values": [{"measurement": "IC50", "setting": "[1]; 6 h, control (native) PMN, culture medium 6 hrs", "value": 75, "unit": "nM"}, {"measurement": "IC50", "setting": "[1]; [4]", "value": 123, "unit": "nM"}, {"measurement": "IC50", "setting": "[1]; [5]", "value": 40, "unit": "nM"}, {"measurement": "IC50", "setting": "[1]; [6]", "value": 43, "unit": "nM"}, {"measurement": "IC50", "setting": "[1]; [7]", "value": 332, "unit": "nM"}, {"measurement": "IC50", "setting": "[1]; [8]", "value": 106, "unit": "nM"}, {"measurement": "concentration reaching maximum inhibition", "setting": "[1]; LPS-incubated PMN", "value": "10^−5 M"}, {"measurement": "increase of the IC50 on the H2O2 production", "setting": "[1]; LPS-treated (6 hrs) versus native human PMN", "value": 4.4, "unit": "fold"}, {"measurement": "Max. inhibition (6 S.E.M.)", "setting": "[1]; [4]", "value": "86.8 (± 4.3) %"}, {"measurement": "Max. inhibition (6 S.E.M.)", "setting": "[1]; [5]", "value": "78.6 (± 2.5) %"}, {"measurement": "Max. inhibition (6 S.E.M.)", "setting": "[1]; [6]", "value": "76.3 (± 5.8) %"}, {"measurement": "Max. inhibition (6 S.E.M.)", "setting": "[1]; [7]", "value": "75.2 (± 2.5) %"}, {"measurement": "Max. inhibition (6 S.E.M.)", "setting": "[1]; [8]", "value": "84.8 (± 3.6) %"}, {"measurement": "Max. inhibition (6 S.E.M.)", "setting": "[1]; control (native) PMN, culture medium 6 hrs", "value": "78.8 (± 1.5) %"}, {"measurement": "concentration reaching maximum inhibitory effects", "setting": "[1]; untreated neutrophils", "value": "10^−6 M"}]}, {"molecule": "IFN-γ: cytokine used for PMN stimulation", "values": [{"measurement": "Spontaneous activity", "setting": "human PMN [2]", "value": "36 (± 2.37) MFI"}]}, {"molecule": "IL-8: cytokine used for PMN stimulation", "values": [{"measurement": "PI-positive PMN", "setting": "human PMN [3]", "value": "1.74 (± 0.36) %"}, {"measurement": "Spontaneous activity", "setting": "human PMN [2]", "value": "30 (± 1.76) MFI"}]}, {"molecule": "TNF-α", "values": [{"measurement": "PI-positive PMN", "setting": "human PMN [3]", "value": "2.89 (± 0.39) %"}, {"measurement": "Spontaneous activity", "setting": "human PMN [2]", "value": "34 (± 1.51) MFI"}]}, {"molecule": "B1", "values": [{"measurement": "PI-positive PMN", "setting": "human PMN [3]", "value": "2.76 (± 0.37) %"}]}]}
